Test system: third instar larvae of Spodoptera litura
Test: Leaf-dip larvicidal assay
Assay type: in vivo
Details: for Eating area (%): 96 h

Row | Compound | Eating area (%) (6.25 ppm) | Eating area (%) (12.5 ppm) | eating area (concentration not given)
1 | CNC(=O)c1cc(Cl)cc(C)c1NC(=O)c1cc(Br)nn1-c1ncccc1Cl [Chlorantraniliprole, chlorantraniliprole] | 0–5% | 0–5% | 0–5%
2 | Cc1cc(Cl)cc(S(C)(=O)=O)c1NC(=O)c1cc(Br)nn1-c1ncccc1Cl [Compound 8] | 0–5% | 0–5% | –

From publication PMC9832345 (RSC Advances, 2023)
